Blank lines part the entries; values can stand above or below the compound they belong to. Active and inactive are the calls of the source. The rule behind the calls is not given here.
Experiments:
[1] = target: T1, 5-hydroxytryptamine receptor 3A (Homo sapiens, UniProt P46098); test: Displacement of [3H]GR65630 from 5-HT3 receptor (unknown origin) expressed in mouse/rat NG108-15 cells after 30 mins by liquid scintillation counting analysis; type: cell-based
T1 sequence (P46098 whole entry): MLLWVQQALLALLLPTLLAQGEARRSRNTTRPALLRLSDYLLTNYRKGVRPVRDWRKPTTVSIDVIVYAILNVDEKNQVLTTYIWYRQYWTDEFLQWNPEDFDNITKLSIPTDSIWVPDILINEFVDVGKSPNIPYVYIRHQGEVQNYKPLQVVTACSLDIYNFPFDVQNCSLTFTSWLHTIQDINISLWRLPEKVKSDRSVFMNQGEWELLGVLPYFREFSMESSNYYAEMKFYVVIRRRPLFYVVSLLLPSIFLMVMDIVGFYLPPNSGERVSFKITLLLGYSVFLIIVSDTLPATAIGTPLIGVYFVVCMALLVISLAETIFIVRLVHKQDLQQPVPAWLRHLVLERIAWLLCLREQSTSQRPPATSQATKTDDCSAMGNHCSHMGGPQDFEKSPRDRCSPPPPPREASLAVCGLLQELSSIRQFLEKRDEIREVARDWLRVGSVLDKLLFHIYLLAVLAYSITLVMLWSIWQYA

[2] = target: T1, 5-hydroxytryptamine receptor 3A; test: Displacement of [3H]GR65630 from human 5-HT3A receptor expressed in HEK293 cells by liquid scintillation counting analysis; type: cell-based
[3] = tested on: Mus musculus; test: Antidepressant activity in ICR mouse assessed as immobility time at 20 mg/kg, ip by tail suspension test; type: functional, organism-based; parameters: dose 20 mg/kg

- Ki [1]: 32 nM
SMILES: NC(N)=Nc1cccc(Cl)c1

- Ki [2]: 2900 nM
SMILES: CN1CCN2c3ncccc3Cc3ccccc3C2C1 (stereo not drawn) [MIRTAZAPINE]

SMILES: CNCCCN1c2ccccc2CCc2ccccc21
- Activity [3]: Active

Reference: ChEMBL document CHEMBL2434905, “2-Amino-6-chloro-3,4-dihydroquinazoline: A novel 5-HT3 receptor antagonist with antidepressant character” (Bioorg Med Chem Lett, 2013)
